Data on one compound can be found in PMC12291913 (Antibiotics, 2025).

Converted amounts (≈) assume the structure as drawn. Like-named read-outs stand apart in the source and are kept apart here.

The subject of this assay is M. avium clinical isolate Koav 25 (WT). Description: microbe, parasite or virus in culture. The assay is classed as cell-based. The following applies: Mycobacterium avium.

As for `Cc1c(N2CC(N(C)C)C2)c(F)cc2c(=O)c(C(=O)O)cn(-c3nc(N)c(F)cc3F)c12` [WQ-3810], the MIC by setting is: (drug alone, day 14, read-out: MIC) 1 µg/mL (≈ 2.24 µM); (read-out: MIC with 1 µg/mL EMB) 0.5 µg/mL (≈ 1.12 µM); (read-out: MIC with 1 µg/mL INH) 0.5 µg/mL (≈ 1.12 µM).
